Reference: PubChem BioAssay AID1259407 (Chemical Carcinogenesis Research Information System (CCRIS), 2018)
The source made the active and inactive calls. The rule behind the calls is not given here.

Tested on: CCRIS mutagenicity, Ames/micronucleus/aberration tests
Assay: CCRIS mutagenicity studies
[1] = Test System: AMES SALMONELLA TYPHIMURIUM, Strain/Indicator: TA98, Metabolic Activation: NONE, Method: STANDARD PLATE
[2] = Test System: AMES SALMONELLA TYPHIMURIUM, Strain/Indicator: TA98, Metabolic Activation: RAT, LIVER, S-9, AROCLOR 1254, Method: STANDARD PLATE
[3] = Test System: AMES SALMONELLA TYPHIMURIUM, Strain/Indicator: TA1535, Metabolic Activation: NONE, Method: STANDARD PLATE
[4] = Test System: AMES SALMONELLA TYPHIMURIUM, Strain/Indicator: TA1535, Metabolic Activation: RAT, LIVER, S-9, AROCLOR 1254, Method: STANDARD PLATE
[5] = Test System: AMES SALMONELLA TYPHIMURIUM, Strain/Indicator: TA1537, Metabolic Activation: NONE, Method: STANDARD PLATE
[6] = Test System: AMES SALMONELLA TYPHIMURIUM, Strain/Indicator: TA1537, Metabolic Activation: RAT, LIVER, S-9, AROCLOR 1254, Method: STANDARD PLATE

NCCN1CCNCC1
mutagenic call (Test System: AMES SALMONELLA TYPHIMURIUM, Strain/Indicator: TA98, Metabolic Activation: NONE, Method: PREINCUBATION): inactive; negative
mutagenic call [1]: inactive; negative
mutagenic call [2]: inactive; negative
mutagenic call (Test System: AMES SALMONELLA TYPHIMURIUM, Strain/Indicator: TA98, Metabolic Activation: RAT, LIVER, S-9, PCB, Method: PREINCUBATION): inactive; negative
mutagenic call (Test System: AMES SALMONELLA TYPHIMURIUM, Strain/Indicator: TA100, Metabolic Activation: NONE, Method: PREINCUBATION): inactive; negative
mutagenic call (Test System: AMES SALMONELLA TYPHIMURIUM, Strain/Indicator: TA100, Metabolic Activation: NONE, Method: STANDARD PLATE): inactive; negative
mutagenic call (Test System: AMES SALMONELLA TYPHIMURIUM, Strain/Indicator: TA100, Metabolic Activation: RAT, LIVER, S-9, AROCLOR 1254, Method: STANDARD PLATE): inactive; negative
mutagenic call (Test System: AMES SALMONELLA TYPHIMURIUM, Strain/Indicator: TA100, Metabolic Activation: RAT, LIVER, S-9, PCB, Method: PREINCUBATION): inactive; negative
mutagenic call [3]: inactive; negative
mutagenic call [4]: inactive; negative
mutagenic call [5]: inactive; negative
mutagenic call [6]: inactive; negative
mutagenic call (Test System: AMES SALMONELLA TYPHIMURIUM, Strain/Indicator: TA1538, Metabolic Activation: NONE, Method: STANDARD PLATE): inactive; negative
mutagenic call (Test System: AMES SALMONELLA TYPHIMURIUM, Strain/Indicator: TA1538, Metabolic Activation: RAT, LIVER, S-9, AROCLOR 1254, Method: STANDARD PLATE): inactive; negative
mutagenic call (Test System: UDS RAT HEPATOCYTES, Strain/Indicator: THY INCORP, Metabolic Activation: NONE, Method: SCINTILLATION SPECTROMETRY): inactive; negative

CC(=O)Nc1ccc2c3c(cccc13)-c1cc(O)ccc1-2
mutagenic call [1]: active; positive
mutagenic call [2]: active; positive

C1=Cc2c3ccccc3cc3cc4ccccc4c1c23
mutagenic call [1]: active; positive
mutagenic call (Test System: AMES SALMONELLA TYPHIMURIUM, Strain/Indicator: TA98, Metabolic Activation: RAT, LIVER, S-9, AROCLOR 1254 (0.127 OR 1.27 MG S-9 PROTEIN), Method: STANDARD PLATE): active; positive

ClCC1CO1 (stereo not drawn)
mutagenic call (End Point: IN VITRO CHROMOSOMAL ABERRATIONS, Test System: CHL CELLS, Metabolic Activation: NONE): active; positive (structural changes)
mutagenic call (End Point: IN VITRO CHROMOSOMAL ABERRATIONS, Test System: CHL CELLS, Metabolic Activation: RAT, LIVER, S-9, SODIUM PHENOBARBITAL AND 5,6-BENZOFLAVONE): active; positive (structural changes)
mutagenic call (Test System: AMES SALMONELLA TYPHIMURIUM, Strain/Indicator: G46, Metabolic Activation: NONE, Method: STANDARD PLATE): active; positive
mutagenic call (Test System: AMES SALMONELLA TYPHIMURIUM, Strain/Indicator: TA97, Metabolic Activation: NONE, Method: STANDARD PLATE): active; positive
mutagenic call (Test System: AMES SALMONELLA TYPHIMURIUM, Strain/Indicator: TA97, Metabolic Activation: RAT, LIVER, S-9, AROCLOR 1254, Method: STANDARD PLATE): inactive; negative
mutagenic call [1]: inactive; negative
mutagenic call (Test System: AMES SALMONELLA TYPHIMURIUM, Strain/Indicator: TA98, Metabolic Activation: RAT LIVER S-9, PHENOBARBITAL AND BETA-NAPHTHOFLAVONE, Method: PREINCUBATION): active; positive
mutagenic call [2]: inactive; negative
mutagenic call (Test System: AMES SALMONELLA TYPHIMURIUM, Strain/Indicator: TA98, Metabolic Activation: S-9, Method: PREINCUBATION): inactive; negative
mutagenic call (Test System: AMES SALMONELLA TYPHIMURIUM, Strain/Indicator: TA100, Metabolic Activation: HAMSTER, LIVER, S-9, AROCLOR 1254 (10%), Method: PREINCUBATION): active; positive
mutagenic call (Test System: AMES SALMONELLA TYPHIMURIUM, Strain/Indicator: TA100, Metabolic Activation: RAT LIVER S-9, PHENOBARBITAL AND BETA-NAPHTHOFLAVONE, Method: PREINCUBATION): active; positive
mutagenic call (Test System: AMES SALMONELLA TYPHIMURIUM, Strain/Indicator: TA100, Metabolic Activation: RAT, LIVER, S-9, AROCLOR 1254 (10%), Method: PREINCUBATION): active; positive
mutagenic call (Test System: AMES SALMONELLA TYPHIMURIUM, Strain/Indicator: TA100, Metabolic Activation: S-9, Method: PREINCUBATION): active; positive
mutagenic call (Test System: AMES SALMONELLA TYPHIMURIUM, Strain/Indicator: TA104, Metabolic Activation: NONE, Method: STANDARD PLATE): active; positive
mutagenic call (Test System: AMES SALMONELLA TYPHIMURIUM, Strain/Indicator: TA1535, Metabolic Activation: HAMSTER, LIVER, S-9, AROCLOR 1254 (10%), Method: PREINCUBATION): active; positive
mutagenic call (Test System: AMES SALMONELLA TYPHIMURIUM, Strain/Indicator: TA1535, Metabolic Activation: NONE, Method: DESICCATOR): active; positive
mutagenic call [3]: active; positive
mutagenic call (Test System: AMES SALMONELLA TYPHIMURIUM, Strain/Indicator: TA1535, Metabolic Activation: RAT LIVER S-9, PHENOBARBITAL AND BETA-NAPHTHOFLAVONE, Method: PREINCUBATION): active; positive
mutagenic call (Test System: AMES SALMONELLA TYPHIMURIUM, Strain/Indicator: TA1535, Metabolic Activation: RAT, LIVER, S-9, AROCLOR 1254 (10%), Method: PREINCUBATION): active; positive
mutagenic call [4]: active; positive
mutagenic call (Test System: AMES SALMONELLA TYPHIMURIUM, Strain/Indicator: TA1535, Metabolic Activation: S-9, Method: PREINCUBATION): active; positive
mutagenic call [5]: inactive; negative
mutagenic call (Test System: AMES SALMONELLA TYPHIMURIUM, Strain/Indicator: TA1537, Metabolic Activation: RAT LIVER S-9, PHENOBARBITAL AND BETA-NAPHTHOFLAVONE, Method: PREINCUBATION): inactive; negative
mutagenic call [6]: inactive; negative
mutagenic call (Test System: AMES SALMONELLA TYPHIMURIUM, Strain/Indicator: TA1537, Metabolic Activation: S-9, Method: PREINCUBATION): inactive; negative
mutagenic call (Test System: AMES SALMONELLA TYPHIMURIUM, Strain/Indicator: TA4001, Metabolic Activation: NONE, Method: STANDARD PLATE): active; positive
mutagenic call (Test System: AMES SALMONELLA TYPHIMURIUM, Strain/Indicator: TA4006, Metabolic Activation: NONE, Method: STANDARD PLATE): active; positive
mutagenic call (Test System: CHINESE HAMSTER V-79, Strain/Indicator: V-79/6-THIOGUANINE, Metabolic Activation: NONE, Method: FLASK ASSAY): inactive; negative
mutagenic call (Test System: E. COLI, Strain/Indicator: WP2, Metabolic Activation: NONE, Method: STANDARD PLATE): active; positive
mutagenic call (Test System: E. COLI, Strain/Indicator: WP2, Metabolic Activation: RAT, LIVER, S-9, AROCLOR 1254, Method: STANDARD PLATE): active; positive
mutagenic call (Test System: E. COLI, Strain/Indicator: WP2 UVRA, Metabolic Activation: NONE, Method: PREINCUBATION): active; positive
mutagenic call (Test System: E. COLI, Strain/Indicator: WP2 UVRA, Metabolic Activation: NONE, Method: STANDARD PLATE): active; positive
mutagenic call (Test System: E. COLI, Strain/Indicator: WP2 UVRA, Metabolic Activation: RAT, LIVER, S-9, AROCLOR 1254, Method: STANDARD PLATE): active; positive
mutagenic call (Test System: E. COLI, Strain/Indicator: WP2 UVRA, Metabolic Activation: S-9, Method: PREINCUBATION): active; positive
mutagenic call (Test System: E.COLI, Strain/Indicator: WP2UVRA, Metabolic Activation: NONE, Method: PREINCUBATION): active; positive
mutagenic call (Test System: E.COLI, Strain/Indicator: WP2UVRA, Metabolic Activation: RAT LIVER S-9, PHENOBARBITAL AND BETA-NAPHTHOFLAVONE, Method: PREINCUBATION): active; positive

c1ccc2c(c1)cc1c3cccc4cccc(c5cccc2c51)c43
mutagenic call (Test System: HUMAN H1A1V2 CELLS, Strain/Indicator: TK LOCUS, Metabolic Activation: NONE, Method: SUSPENSION/PLATE): active; positive

O=c1c2ccccc2[nH]c2occc12
mutagenic call [1]: inactive; negative
mutagenic call (Test System: AMES SALMONELLA TYPHIMURIUM, Strain/Indicator: TA98, Metabolic Activation: RAT LIVER S-9, PHENOBARTITAL, Method: STANDARD PLATE): inactive; negative
